Test results: US20210332024A1, “MODULATORS OF PIN1 ACTIVITY AND USES THEREOF” (Yeda Research and Development Co. Ltd., priority 2019, published 2021)

How the values were obtained:
[1] = target: T1, catalytic domain of Pin1 (Homo sapiens, UniProt Q13526); test: Intact protein LC/MS labeling of Pin1; assay type: binding
T1 construct: The purified catalytic domain of Pin1 was incubated with the fragment library
Procedure: 993 compounds were transferred to a 384-well plate working copy by combining 0.5 μl of 20 mM stock solution of four or five compounds per well. The catalytic domain of Pin1 (2 μM) in 20 mM Tris, 75 mM NaCl, pH 7.5 was incubated with 200 μM for each compound and moderately shaken for 24 hours at 4° C. The reaction was stopped by the addition of formic acid to 0.4% (v/v) final concentration.
Liquid chromatography/mass spectroscopy runs were performed on an Acquity™ UPLC® H-class system (Waters) in positive ion mode using electrospray ionization (ESI). UPLC separation was performed on a C4 column (300 Å, 1.7 μM, […]). The column was held at 40° C., and the autosampler at 10° C. Mobile solution A was 0.1% formic acid in water and mobile phase B was 0.1% formic acid in acetonitrile. Run flow was 0.4 ml/minute; and a gradient of 20% B for 2 minutes, increasing linearly to 60% B for 3 minutes, holding at 60% B for 1.5 minutes, changing to 0% B in 0.1 minute and holding at 0% for 1.4 minutes, was used. Desolvation temperature was 500° C. with a flow rate of 1000 liters/hour. The capillary voltage was 0.69 kV and cone voltage 46 V. Raw data was processed using OpenLynx™ software and deconvoluted using the MaxEnt tool. Labeling assignment was performed as described in Resnick et al. [J Am Chem Soc 2019, 141:8951-8968].
For the screening 2 μl of each of the 448 click products as 50 μM DMSO stocks were transferred into a 384-well plate working plate. 48 μl of catalytic domain of Pin1 (2 μM) in 20 mM Tris (pH 7.5) with 75 mM NaCl were added and moderately shaken and incubated for 15 minutes at room temperature. The reaction was stopped by the addition of formic acid to 0.4% (v/v) final concentration (20 μl). The mixtures were analyzed by liquid chromatography/mass spectroscopy analogously to the electrophile library incubations described herein. Hits were retrospectively analyzed by liquid chromatography/mass spectroscopy (LC-MS) to ensure reaction completion.
For each measured well, processed peaks were searched to match the mass of unlabeled protein or common small adducts of the unlabeled protein, which were found in the control sample or labeled protein. Labeling percentage for a compound was determined as the labeling of a specific compound divided by the overall detected protein species. Peaks whose mass could not be assigned were discarded from the overall labeling calculation. Data was analyzed using a python script for processing the MaxEnt-deconvoluted spectra. Peaks were normalized from ion counts to percentages, where the highest peak is defined as 100%. The unlabeled protein mass is deduced from a reference well that contains just the protein.
The purified catalytic domain of Pin1 was incubated with the fragment library (2 μM protein, 200 μM compound; 24 hours at 4° C.), followed by intact protein liquid chromatography/mass-spectrometry (LC/MS) to identify and quantify compound labeling. FIG. 1 depicts an example of a compound identified in this manner.
Based on the docking predictions, a total of 26 compounds that featured a range of small or bulky aliphatic, arylic, biphenylic or heterocyclic side-chains (structures depicted in FIG. 5), were synthesized or purchased. In order to identify potent binders, the irreversible labeling efficiency of these second-generation compounds was assessed alongside the original screening hits under more stringent conditions, with a 1:1 ratio of protein to compound (2 μM compound; 1 hour at room temperature).
For further optimization of the lipophilic moiety, an alkyne side chain-bearing analog was prepared, which was derivatized with 448 different azides using copper-catalyzed azide-alkyne cycloaddition (CuAAC).

[2] = Thiol reactivity assay (DTNB); assay type: physicochemical; conditions: 200 μM compound, pH 7.4, 37° C.
Procedure: 50 μM DTNB (dithionitrobenzoic acid) was incubated with 200 μM TCEP (tris(2-carboxytehyl)phosphine) in 20 mM sodium phosphate buffer (pH 7.4) with 150 mM NaCl, for 5 minutes at room temperature, in order to obtain TNB^2− (thionitrobenzoate dianion). 200 μM compounds were subsequently added to the TNB^2−, followed by immediate UV absorbance measurement at 412 nm (at 37° C.). The UV absorbance was acquired every 15 minutes for 7 hours. The assay was performed in a 384-well plate using a Spark™ 10M plate reader (Tecan). Background absorbance of compounds was subtracted by measuring the absorbance at 412 nm of each compound under the same conditions without DTNB. Compounds were measured in triplicates. The data was fitted to a second order reaction equation such that the rate constant k is the slope of ln([A][B0]/[B][A0]), where [A0] and [B0] are the initial concentrations of the compound (200 μM) and TNB^2− (100 μM) respectively, and [A] and [B] are the remaining concentrations as a function of time, as determined from the spectrometric measurement. Linear regression using Prism® software was performed to fit the rate against the first four hours of measurements.
In order to estimate the influence of the various lipophilic moieties on “warhead” reactivity [Flanagan et al., J Med Chem 2014, 57:10072-10079; Lonsdale et al., J Chem Inf Model 2017, 57:3124-3137; Dahal et al., Medchemcomm 2016, 7:864-872], the thiol reactivity of the top ten binders of the second and third generation was assessed using a high-throughput assay previously applied to the entire fragment library, as described in Resnick et al. [J Am Chem Soc 2019, 141:8951-8968]. In brief, the second-order rate constant was evaluated for a model thiol, which reflects trends in general reactivity towards thiol groups.

[3] = 2 μM Pin1 with 200 μM test compound for 24 hours at 4° C.
[4] = 2 μM Pin1 with 2 μM test compound for 1 hour at room temperature

T1 sequence (Q13526 52-163 limits assumed): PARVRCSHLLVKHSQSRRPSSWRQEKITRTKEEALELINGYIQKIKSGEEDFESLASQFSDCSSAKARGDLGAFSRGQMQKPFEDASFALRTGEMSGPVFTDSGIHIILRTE

Row | Structure (SMILES) | Labeling [%] [1, 3] [%] | Reactivity Log k [2] | Reactivity k [2] [M⁻¹ s⁻¹] | Labeling [%] [1, 4] [%]
1 | O=C(CCl)N(c1ccccc1)C1CCS(=O)(=O)C1 (stereo not drawn) [PCM-0102755] | 83 | −6.81 | 1.54e-07 | 
2 | O=C(CCl)N(C1CCCCC1)C1CCS(=O)(=O)C1 (stereo not drawn) [PCM-0102760] | 100 | −7.00 | 1e-07 | 
3 | O=C(CCl)N(C1CC1)C1CCS(=O)(=O)C1 (stereo not drawn) [PCM-0102832] | 72 | −7.22 | 6.02e-08 | 
4 | O=C(CCl)N(c1ccc(F)cc1)C1C=CS(=O)(=O)C1 (stereo not drawn) [PCM-0102868] | 100 |  |  | 
5 | O=C(CCl)NCC1CCS(=O)(=O)C1 (stereo not drawn) [PCM-0102896] | 42 |  |  | 
6 | Cc1ccc(N(C(=O)CCl)C2C=CS(=O)(=O)C2)cc1C (stereo not drawn) [PCM-0103082] | 69 |  |  | 
7 | CC(c1ccccc1)N(C(=O)CCl)C1CCS(=O)(=O)C1 (stereo not drawn) [Pin1-2-2] |  | −7.09 | 8.06e-08 | 27
8 | O=C(CCl)N(Cc1cccc(F)c1)C1CCS(=O)(=O)C1 (stereo not drawn) [Pin1-2-5] |  | −6.88 | 1.31e-07 | 24
9 | O=C(CCl)N(Cc1ccccc1-c1ccccc1)C1CCS(=O)(=O)C1 (stereo not drawn) [Pin1-2-10] |  | −6.89 | 1.3e-07 | 25
10 | O=C(CCl)N(Cc1cccc(Cl)c1)C1CCS(=O)(=O)C1 (stereo not drawn) [Pin1-2-11] |  | −6.94 | 1.15e-07 | 19
11 | O=C(CCl)N(Cc1ccccc1-c1cccc(C(F)(F)F)c1)C1CCS(=O)(=O)C1 (stereo not drawn) [Pin1-3-8] |  | −7.09 | 8.22e-08 | 23
12 | O=C(CCl)N(CC1CCCC1)C1CCS(=O)(=O)C1 (stereo not drawn) [Pin1-3-14, 2-chloro-N-(sulfolan-3-yl)-N-(cyclopentylmethyl)acetamide] |  | −7.15 | 7.03e-08 | 
13 | CC(C)CN(C(=O)CCl)C1CCS(=O)(=O)C1 (stereo not drawn) [Pin1-3-15, 2-chloro-N-(sulfolan-3-yl)-N-isobutylacetamide] |  | −7.11 | 7.77e-08 | 21
14 | CC(C)(C)CN(C(=O)CCl)C1(C)CCS(=O)(=O)C1 (stereo not drawn) [Pin1-18] |  | −7.77 | 1.69e-08 | 
15 | CCCN(C(=O)CCl)C1CCS(=O)(=O)C1 (stereo not drawn) [Pin1-028] |  | −6.80 | 1.59e-07 | 16
16 | CCC(C)N(C(=O)CCl)C1CCS(=O)(=O)C1 (stereo not drawn) [Pin1-053] |  | −6.91 | 1.24e-07 | 28
17 | O=C(CCl)N(Cc1ccccc1)C1CCS(=O)(=O)C1 (stereo not drawn) [Pin1-437] |  | −6.82 | 1.51e-07 | 
